Earlier results, collected in article PMC6443429 (Molecular pharmaceutics, 2019).

Experiments:
[1] = system: MC1R, B16/F1 melanoma cells
[2] = system: MC1R, B16/F10 melanoma cells

1,4,7,10-tetraazacyclononane-1,4,7,10-tetraacetic acid-Gly-Gly-Nle-c[Asp-His-DPhe-Arg-Trp-Lys]-CONH2 (sidechain bridge or staple) [DOTA-GGNle-CycMSHhex]
MC1R binding affinity [1]: nanomolar
MC1R binding affinity [2]: nanomolar
